According to ChEMBL document CHEMBL4433224, “Hybridization of Fluoro-amodiaquine (FAQ) with Pyrimidines: Synthesis and Antimalarial Efficacy of FAQ-Pyrimidines” (ACS Med Chem Lett, 2019):
The source made the active and inactive calls. No cut-off for these calls is given here.

What was measured:
Plasmodium falciparum [1] = assay: microbe, parasite or virus in culture; conditions: NF54, 48 h
Description: Antiplasmodial activity against chloroquine-sensitive Plasmodium falciparum NF54 incubated for 48 hrs by parasite lactate dehydrogenase assay

Plasmodium falciparum [2] = assay: microbe, parasite or virus in culture; conditions: Dd2, 48 h
Description: Antiplasmodial activity against chloroquine-resistant Plasmodium falciparum Dd2 incubated for 48 hrs by parasite lactate dehydrogenase assay

[3] = Intrinsic clearance human liver microsomes in the presence of NADPH; assay type: ADME, Microsome; conditions: read-out: CLH
Plasmodium berghei [4] = assay: Antimalarial activity against Plasmodium berghei infected in mouse assessed as suppression in parasitemia at 11.1 mg/kg, ip dosed once daily on days 0, 1, and 2 days post infection measured on day 7 post infection relative to untreated control; assay type: functional
Plasmodium berghei [5] = assay: Antimalarial activity against Plasmodium berghei infected in mouse assessed as mean survival time at 33.3 mg/kg, ip dosed once daily on days 0, 1, and 2 days post infection measured on day 28 post infection (reference value: 13.2 days); assay type: functional
Plasmodium berghei [6] = assay: Antimalarial activity against Plasmodium berghei infected in mouse assessed as parasitemia cure at 11.1 mg/kg, ip dosed once daily on days 0, 1, and 2 days post infection measured on day 28 post infection; assay type: functional, organism-based
Plasmodium berghei [7] = assay: Antimalarial activity against Plasmodium berghei infected in mouse assessed as mean survival time at 11.1 mg/kg, ip dosed once daily on days 0, 1, and 2 days post infection measured on day 28 post infection (reference value: 13.2 days); assay type: functional
Heme [8] = assay: Binding affinity to monomeric heme assessed as mole fraction for 1:1 binding stoichiometry with monomeric heme at pH 5.6 by spectrophotometric titration analysis
Plasmodium berghei [9] = assay: Antimalarial activity against Plasmodium berghei infected in mouse assessed as suppression in parasitemia at 33.3 mg/kg, ip dosed once daily on days 0, 1, and 2 days post infection measured on day 5 post infection relative to untreated control; assay type: functional
Heme [10] = assay: Binding affinity to monomeric heme assessed as mole fraction for 1:1 binding stoichiometry with monomeric heme at pH 7.4 by spectrophotometric titration analysis
Plasmodium berghei [11] = assay: Antimalarial activity against Plasmodium berghei infected in mouse assessed as host survival at 33.3 mg/kg, ip dosed once daily on days 0, 1, and 2 days post infection measured on day 28 post infection relative to untreated control; assay type: functional, organism-based
Heme [12] = assay: Binding affinity to monomeric heme assessed as decrease in the Soret band at pH 7.4 by spectrophotometric titration analysis
Plasmodium berghei [13] = assay: Antimalarial activity against Plasmodium berghei infected in mouse assessed as suppression in parasitemia at 33.3 mg/kg, ip dosed once daily on days 0, 1, and 2 days post infection measured on day 7 post infection relative to untreated control; assay type: functional
Heme [14] = assay: Binding affinity to monomeric heme assessed as decrease in the Soret band at pH 5.6 by spectrophotometric titration analysis
[15] = Half life human liver microsomes in the presence of NADPH; assay type: ADME, Microsome
Plasmodium berghei [16] = assay: Antimalarial activity against Plasmodium berghei infected in mouse assessed as suppression in parasitemia at 11.1 mg/kg, ip dosed once daily on days 0, 1, and 2 days post infection measured on day 5 post infection relative to untreated control; assay type: functional
CHO = assay: Cytotoxicity in CHO cells assessed as reduction in cell viability; assay type: cell-based; conditions: Cricetulus griseus
in vitro [17] = conditions: hamster, CHO cells versus Plasmodium falciparum Dd2
Description: Selectivity index, ratio of IC50 for CHO cells to IC50 for antiplasmodial activity against chloroquine-resistant Plasmodium falciparum Dd2

in vitro [18] = conditions: hamster, CHO cells versus Plasmodium falciparum NF54
Description: Selectivity index, ratio of IC50 for CHO cells to IC50 for antiplasmodial activity against chloroquine-sensitive Plasmodium falciparum NF54

Plasmodium berghei [19] = assay: Antimalarial activity against Plasmodium berghei infected in mouse assessed as suppression in parasitemia at 33.3 mg/kg, po dosed once daily on days 0, 1, and 2 days post infection measured on day 5 post infection relative to untreated control; assay type: functional
Plasmodium berghei [20] = assay: Antimalarial activity against Plasmodium berghei infected in mouse assessed as host survival at 33.3 mg/kg, po dosed once daily on days 0, 1, and 2 days post infection measured on day 28 post infection relative to untreated control; assay type: functional, organism-based
Plasmodium berghei [21] = assay: Antimalarial activity against Plasmodium berghei infected in mouse assessed as host survival at 11.1 mg/kg, po dosed once daily on days 0, 1, and 2 days post infection measured on day 28 post infection relative to untreated control; assay type: functional, organism-based
Plasmodium berghei [22] = assay: Antimalarial activity against Plasmodium berghei infected in mouse assessed as suppression in parasitemia at 33.3 mg/kg, po dosed once daily on days 0, 1, and 2 days post infection measured on day 7 post infection relative to untreated control; assay type: functional
Plasmodium berghei [23] = assay: Antimalarial activity against Plasmodium berghei infected in mouse assessed as mean survival time at 11.1 mg/kg, po dosed once daily on days 0, 1, and 2 days post infection measured on day 28 post infection (reference value: 13.2 days); assay type: functional
Plasmodium berghei [24] = assay: Antimalarial activity against Plasmodium berghei infected in mouse assessed as mean survival time at 33.3 mg/kg, po dosed once daily on days 0, 1, and 2 days post infection measured on day 28 post infection (reference value: 13.2 days); assay type: functional
Plasmodium berghei [25] = assay: Antimalarial activity against Plasmodium berghei infected in mouse assessed as parasitemia cure at 11.1 mg/kg, po dosed once daily on days 0, 1, and 2 days post infection measured on day 28 post infection; assay type: functional, organism-based
Plasmodium berghei [26] = assay: Antimalarial activity against Plasmodium berghei infected in mouse assessed as suppression in parasitemia at 11.1 mg/kg, po dosed once daily on days 0, 1, and 2 days post infection measured on day 7 post infection relative to untreated control; assay type: functional
Plasmodium berghei [27] = assay: Antimalarial activity against Plasmodium berghei infected in mouse assessed as suppression in parasitemia at 11.1 mg/kg, po dosed once daily on days 0, 1, and 2 days post infection measured on day 5 post infection relative to untreated control; assay type: functional
Plasmodium berghei [28] = assay: Antimalarial activity against Plasmodium berghei infected in mouse assessed as parasitemia cure at 33.3 mg/kg, po dosed once daily on days 0, 1, and 2 days post infection measured on day 28 post infection; assay type: functional, organism-based

SMILES	IC50 (Plasmodium falciparum [1]) [nM]	IC50 (Plasmodium falciparum [2]) [nM]	IC50 (CHO) [nM]	selectivity ratio (in vitro [17])	selectivity ratio (in vitro [18])	also measured
Cc1cc(N2CCCC2)nc(NCc2cc(Nc3ccnc4cc(Cl)ccc34)ccc2F)n1	89	74.9				
Cc1cc(NCc2cc(Nc3ccnc4cc(Cl)ccc34)ccc2F)nc(N2CCCCC2)n1	13.8	17.2				
C[C@H]1[C@H](OC(=O)CCC(=O)O)O[C@@H]2O[C@@]3(C)CC[C@H]4[C@H](C)CC[C@@H]1[C@@]24OO3 [ARTESUNATE]	10	13				
Cc1cc(NCc2cc(Nc3ccnc4cc(Cl)ccc34)ccc2F)nc(N2CCN(C)CC2)n1	12.5	5.24				microsomal CLint [3]: 82.8 µL/min/mg; Activity (Plasmodium berghei [4]): 92.9%; MST (Plasmodium berghei [5]): 28 days; Activity (Plasmodium berghei [6]): inactive; MST (Plasmodium berghei [7]): 19.8 days; Activity (mole fraction) (Heme [8]): 0.5; Activity (Plasmodium berghei [9]): 100%; Activity (mole fraction) (Heme [10]): 0.5; Activity (Plasmodium berghei [11]): Active; Activity (Heme [12]): Active; Activity (Plasmodium berghei [13]): 100%; Activity (Heme [14]): Active; half-life [15]: 16.7 min; Activity (Plasmodium berghei [16]): 91.9%
Cc1cc(N2CCSCC2)nc(NCc2cc(Nc3ccnc4cc(Cl)ccc34)ccc2F)n1	7.47	16	2710	169	362	
Cc1cc(N2CCCCCC2)nc(NCc2cc(Nc3ccnc4cc(Cl)ccc34)ccc2F)n1	148	67.5				
NCc1cc(Nc2ccnc3cc(Cl)ccc23)ccc1F	46.1	58.7	31300	533	680	
Cc1cc(N2CCOCC2)nc(NCc2cc(Nc3ccnc4cc(Cl)ccc34)ccc2F)n1	12.1	17.9	4590	256	380	
Cc1cc(NCc2cc(Nc3ccnc4cc(Cl)ccc34)ccc2F)nc(Cl)n1	183	214				
Cc1cc(N2CCN(c3ccccc3)CC2)nc(NCc2cc(Nc3ccnc4cc(Cl)ccc34)ccc2F)n1	69.8	62.2	17500	282	251	
CCN(CC)CCCC(C)Nc1ccnc2cc(Cl)ccc12 (centres undefined) [CHLOROQUINE]						Activity (Plasmodium berghei [19]): 100%; Activity (Plasmodium berghei [20]): Active; Activity (Plasmodium berghei [21]): Active; Activity (Plasmodium berghei [22]): 100%; MST (Plasmodium berghei [23]): 28 days; MST (Plasmodium berghei [24]): 28 days; Activity (Plasmodium berghei [25]): inactive; Activity (Plasmodium berghei [26]): 99.2%; Activity (Plasmodium berghei [27]): 100%
CCN1CCN(c2nc(C)cc(NCc3cc(Nc4ccnc5cc(Cl)ccc45)ccc3F)n2)CC1	11.2	7.63				
N#Cc1cc(Nc2ccnc3cc(Cl)ccc23)ccc1F	> 3360	3200				
Cc1cc(NCc2cc(Nc3ccnc4cc(Cl)ccc34)ccc2F)nc(N2CCOCC2)n1	26.7	33.3	14600	437	544	
Cc1cc(NCc2cc(Nc3ccnc4cc(Cl)ccc34)ccc2F)nc(N2CCCCCC2)n1	16.9	27.2				
Cc1cc(Cl)nc(NCc2cc(Nc3ccnc4cc(Cl)ccc34)ccc2F)n1	231	297				
CCN1CCN(c2cc(C)nc(NCc3cc(Nc4ccnc5cc(Cl)ccc45)ccc3F)n2)CC1	28.9	23.4	80300	3430	2780	
CCN(CC)Cc1cc(Nc2ccnc3cc(Cl)ccc23)ccc1O [AMODIAQUINE]						Activity (Plasmodium berghei [19]): 100%; microsomal CLint [3]: 431 µL/min/mg; Activity (Plasmodium berghei [20]): Active; Activity (Plasmodium berghei [21]): Active; Activity (Plasmodium berghei [22]): 100%; MST (Plasmodium berghei [23]): 28 days; MST (Plasmodium berghei [24]): 28 days; Activity (Plasmodium berghei [26]): 100%; Activity (Plasmodium berghei [27]): 100%; Activity (Plasmodium berghei [28]): Active; half-life [15]: 5.4 min
Cc1cc(NCc2cc(Nc3ccnc4cc(Cl)ccc34)ccc2F)nc(N2CCN(c3ccccc3)CC2)n1	17.7	31.3	17400	555	981	
Cc1cc(NCc2cc(Nc3ccnc4cc(Cl)ccc34)ccc2F)nc(N2CCSCC2)n1	22.8	33.1	15200	459	664	
Cc1cc(N2CCN(C)CC2)nc(NCc2cc(Nc3ccnc4cc(Cl)ccc34)ccc2F)n1	15.3	18.4	58200	3160	3800	
Cc1cc(NCc2cc(Nc3ccnc4cc(Cl)ccc34)ccc2F)nc(N2CCCC2)n1	12.4	8.23	3800	462	306	
